Results published in PMC1876254 (Plant Molecular Biology, 2007).

Molecular target: T1, LeMTS1 (Solanum lycopersicum, UniProt Q1XBU5)
T1 sequence (Q1XBU5 44-609): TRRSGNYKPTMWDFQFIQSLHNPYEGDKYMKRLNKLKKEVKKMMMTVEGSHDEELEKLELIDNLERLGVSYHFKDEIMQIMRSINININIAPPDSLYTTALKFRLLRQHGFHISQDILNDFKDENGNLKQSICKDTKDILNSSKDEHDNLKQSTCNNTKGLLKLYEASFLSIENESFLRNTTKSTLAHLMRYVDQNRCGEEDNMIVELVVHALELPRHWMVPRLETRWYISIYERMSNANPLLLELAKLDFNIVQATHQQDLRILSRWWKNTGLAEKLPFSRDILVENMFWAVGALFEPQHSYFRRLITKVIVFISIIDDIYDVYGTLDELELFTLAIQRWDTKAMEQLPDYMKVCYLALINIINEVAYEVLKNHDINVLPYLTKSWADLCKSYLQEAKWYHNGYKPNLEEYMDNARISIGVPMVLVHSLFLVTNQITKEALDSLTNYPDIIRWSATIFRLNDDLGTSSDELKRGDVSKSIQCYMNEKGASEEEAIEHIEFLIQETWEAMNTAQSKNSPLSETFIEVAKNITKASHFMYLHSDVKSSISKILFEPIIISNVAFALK
Assay: terpene synthase assay, SPME GC-TOF-MS of products
Format: biochemical
Conditions: product (E)-nerolidol; 10 uM substrate, 10 mM MgCl2, 2 mM MnCl2, HEPES pH 7.5, 30 C, 1 h

## CC(C)=CCC/C(C)=C/CC/C(C)=C/COP(=O)(O)OP(=O)(O)O [FPP]
  terpene synthase assay, SPME GC-TOF-MS of products: LeMTS1 was also able to utilize the sesquiterpene precursor farnesyl diphosphate (FPP) as substrate
